Laboratory results: patent publication US11180462B2, “Microbiocidal oxadiazole derivatives” (SYNGENTA PARTICIPATIONS AG, priority 2015, dated 2021)

How the values were obtained:
[1] = system: Glomerella lagenarium (Colletotrichum lagenarium); assay: Fungicidal activity against Glomerella lagenarium (Colletotrichum lagenarium) liquid culture / cucumber / preventative (anthracnose); format: cell-based; details: Colletotrichum orbiculare; 20 ppm in the applied formulation; liquid culture (PDB), growth inhibition measured photometrically after 3 to 4 days; compared to untreated control; read-out: disease control
How it was run: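 Photometric read-out of fungal growth after 2–7 days, expressed as percent antifungal activity versus untreated check. Cryo-stored conidia in PDB; compound at 20 ppm; dark, 24 °C, 96% RH.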

[2] = system: Puccinia recondita f. Sp. Tritici; assay: Fungicidal activity against Puccinia recondita f. sp. tritici / wheat / leaf disc preventative (brown rust); format: in vivo; details: foliar, 200 ppm in the applied formulation, wheat leaf segments, preventative, compared to untreated control leaf disks, read-out: disease control
How it was run: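 Preventative leaf-segment test, wheat cv. Kanzler on water agar. Spray compound at 200 ppm, inoculate with spores 1 day later; 19° C., 75% rh, 12/12 h light. Read-out: % disease control vs untreated, 7 to 9 days after application.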

[3] = system: Puccinia recondita f. Sp. Tritici; assay: Fungicidal activity against Puccinia recondita f. sp. tritici / wheat / leaf disc curative (brown rust); format: in vivo; details: foliar, 24 h, 200 ppm in the applied formulation, wheat leaf segments, curative (applied 1 day after inoculation), compared to untreated control leaf disks, read-out: disease control
How it was run: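 Inoculate cv. Kanzler segments on agar; hold dark, 19° C, 75% RH. Spray diluted formulated compound at day 1. Incubate 12 h light/12 h dark, same temperature and humidity; score % control vs untreated 6–8 days later.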

[4] = system: Phakopsora Pachyrhizi; assay: Fungicidal activity against Phakopsora pachyrhizi / soybean / leaf disc preventative (Asian soybean rust); format: in vivo; details: foliar, 200 ppm in the applied formulation, soybean leaf disks, compared to untreated control leaf disks, read-out: disease control
How it was run: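 Preventative soybean leaf-disc test: discs on water agar sprayed with diluted formulated compound, inoculated one day later with spores on the lower surface. Held 24–36 h dark at 20°C, 75% rh, then 12 h light/day; percent disease control versus untreated discs scored 12–14 days after application.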

CCN(Cc1ccc(-c2noc(C(F)(F)F)n2)cc1)C(=O)CCOC [Compound 1.496, N-ethyl-3-methoxy-N-[[4-[5-(trifluoromethyl)-1,2,4-oxadiazol-3-yl]phenyl]methyl]-propanamide]
≥ 80%: inhibition of growth at 20 ppm [1] | pest or weed control at 200 ppm [2] | pest or weed control at 200 ppm [3] | pest or weed control at 200 ppm [4]

CCC(=O)N(CC)Cc1ccc(-c2noc(C(F)(F)F)n2)cc1 [Compound 1.497, N-ethyl-N-[[4-[5-(trifluoromethyl)-1,2,4-oxadiazol-3-yl]phenyl]methyl]-propanamide]
≥ 80%: inhibition of growth at 20 ppm [1] | pest or weed control at 200 ppm [2] | pest or weed control at 200 ppm [3] | pest or weed control at 200 ppm [4]

CCN(Cc1ccc(-c2noc(C(F)(F)F)n2)cc1)C(=O)C1CCC1 [Compound 1.498, N-ethyl-N-[[4-[5-(trifluoromethyl)-1,2,4-oxadiazol-3-yl]phenyl]methyl]-cyclobulane-carboxamide]
≥ 80%: inhibition of growth at 20 ppm [1] | pest or weed control at 200 ppm [2] | pest or weed control at 200 ppm [3] | pest or weed control at 200 ppm [4]

CCN(Cc1ccc(-c2noc(C(F)(F)F)n2)cc1)C(=O)COC [Compound 1.499, N-ethyl-2-methoxy-N-[[4-[5-(trifluoromethyl)-1,2,4-oxadiazol-3-yl]phenyl]methyl]-acetamide]
≥ 80%: inhibition of growth at 20 ppm [1] | pest or weed control at 200 ppm [2] | pest or weed control at 200 ppm [3] | pest or weed control at 200 ppm [4]

CCN(Cc1ccc(-c2noc(C(F)(F)F)n2)cc1)C(=O)C1CC1C (stereo not drawn) [Compound 1.500, N-ethyl-2-methyl-N-[[4-[5-(trifluoromethyl)-1,2,4-oxadiazol-3-yl]phenyl]methyl]-cyclopropane-carboxamide]
≥ 80%: inhibition of growth at 20 ppm [1] | pest or weed control at 200 ppm [2] | pest or weed control at 200 ppm [3] | pest or weed control at 200 ppm [4]

CCN(Cc1ccc(-c2noc(C(F)(F)F)n2)cc1)C(=O)C(C)C [Compound 1.503]
≥ 80%: inhibition of growth at 20 ppm [1] | pest or weed control at 200 ppm [2] | pest or weed control at 200 ppm [3] | pest or weed control at 200 ppm [4]

CCN(Cc1ccc(-c2noc(C(F)(F)F)n2)cc1)C(=O)C1CC1(F)F (stereo not drawn) [Compound 1.504, N-ethyl-2,2-difluoro-N-[[4-[5-(trifluoromethyl)-1,2,4-oxadiazol-3-yl]phenyl]methyl]-cyclopropane-carboxamide]
≥ 80%: inhibition of growth at 20 ppm [1] | pest or weed control at 200 ppm [2] | pest or weed control at 200 ppm [3] | pest or weed control at 200 ppm [4]

CCCC(=O)N(CC)Cc1ccc(-c2noc(C(F)(F)F)n2)cc1 [Compound 1.505, N-ethyl-N-[[4-[5-(trifluoromethyl)-1,2,4-oxadiazol-3-yl]phenyl]methyl]-butanamide]
≥ 80%: inhibition of growth at 20 ppm [1] | pest or weed control at 200 ppm [2] | pest or weed control at 200 ppm [3] | pest or weed control at 200 ppm [4]

CCC(C)C(=O)N(CC)Cc1ccc(-c2noc(C(F)(F)F)n2)cc1 (stereo not drawn) [Compound 1.506, N-ethyl-2-methyl-N-[[4-[5-(trifluoromethyl)-1,2,4-oxadiazol-3-yl]phenyl]methyl]-butanamide]
≥ 80%: inhibition of growth at 20 ppm [1] | pest or weed control at 200 ppm [2] | pest or weed control at 200 ppm [3] | pest or weed control at 200 ppm [4]

CCN(Cc1ccc(-c2noc(C(F)(F)F)n2)cc1)C(=O)CCCOC [Compound 1.507, N-ethyl-4-methoxy-N-[[4-[5-(trifluoromethyl)-1,2,4-oxadiazol-3-yl]phenyl]methyl]-butanamide]
≥ 80%: inhibition of growth at 20 ppm [1] | pest or weed control at 200 ppm [2] | pest or weed control at 200 ppm [3] | pest or weed control at 200 ppm [4]

CCN(Cc1ccc(-c2noc(C(F)(F)F)n2)cc1)C(=O)C1(C)COC1 [Compound 1.508, N-ethyl-3-methyl-N-[[4-[5-(trifluoromethyl)-1,2,4-oxadiazol-3-yl]phenyl]methyl]-oxetane-3-carboxamide]
≥ 80%: inhibition of growth at 20 ppm [1] | pest or weed control at 200 ppm [2] | pest or weed control at 200 ppm [3] | pest or weed control at 200 ppm [4]

CCN(Cc1ccc(-c2noc(C(F)(F)F)n2)cc1)C(=O)C1CCCO1 (stereo not drawn) [Compound 1.509, N-ethyl-N-[[4-[5-(trifluoromethyl)-1,2,4-oxadiazol-3-yl]phenyl]methyl]-tetrahydrofuran-2-carboxamide]
≥ 80%: inhibition of growth at 20 ppm [1] | pest or weed control at 200 ppm [2] | pest or weed control at 200 ppm [3] | pest or weed control at 200 ppm [4]

CCN(Cc1ccc(-c2noc(C(F)(F)F)n2)cc1)C(=O)CC#N [Compound 1.510, 2-cyano-N-ethyl-N-[[4-[5-(trifluoromethyl)-1,2,4-oxadiazol-3-yl]phenyl]methyl]-acetamide]
≥ 80%: inhibition of growth at 20 ppm [1] | pest or weed control at 200 ppm [2] | pest or weed control at 200 ppm [3] | pest or weed control at 200 ppm [4]

CCN(Cc1ccc(-c2noc(C(F)(F)F)n2)cc1)C(=O)C1CC1F (stereo not drawn) [Compound 1.511, N-ethyl-2-fluoro-N-[[4-[5-(trifluoromethyl)-1,2,4-oxadiazol-3-yl]phenyl]methyl]-cyclopropane-carboxamide]
≥ 80%: inhibition of growth at 20 ppm [1] | pest or weed control at 200 ppm [2] | pest or weed control at 200 ppm [3] | pest or weed control at 200 ppm [4]

CCN(Cc1ccc(-c2noc(C(F)(F)F)n2)cc1)C(=O)C(C)OC (stereo not drawn) [Compound 1.512, N-ethyl-2-methoxy-N-[[4-[5-(trifluoromethyl)-1,2,4-oxadiazol-3-yl]phenyl]methyl]-propanamide]
≥ 80%: inhibition of growth at 20 ppm [1] | pest or weed control at 200 ppm [2] | pest or weed control at 200 ppm [3] | pest or weed control at 200 ppm [4]

CCN(Cc1ccc(-c2noc(C(F)(F)F)n2)cc1)C(=O)C1OCCO1 [Compound 1.513, N-ethyl-N-[[4-[5-(trifluoromethyl)-1,2,4-oxadiazol-3-yl]phenyl]methyl]-1,3-dioxolane-2-carboxamide]
≥ 80%: inhibition of growth at 20 ppm [1] | pest or weed control at 200 ppm [2] | pest or weed control at 200 ppm [3] | pest or weed control at 200 ppm [4]

CCN(Cc1ccc(-c2noc(C(F)(F)F)n2)cc1)C(=O)C1CC1 [Compound 1.514, N-ethyl-N-[[4-[5-(trifluoromethyl)-1,2,4-oxadiazol-3-yl]phenyl]methyl]-cyclopropane-carboxamide]
≥ 80%: inhibition of growth at 20 ppm [1] | pest or weed control at 200 ppm [2] | pest or weed control at 200 ppm [3] | pest or weed control at 200 ppm [4]

CN(Cc1ccc(-c2noc(C(F)(F)F)n2)cc1)C(=O)C1CCCC1 [Compound 1.515, N-methyl-N-[[4-[5-(trifluoromethyl)-1,2,4-oxadiazol-3-yl]phenyl]methyl]-cyclopentane-carboxamide]
≥ 80%: inhibition of growth at 20 ppm [1] | pest or weed control at 200 ppm [2] | pest or weed control at 200 ppm [3] | pest or weed control at 200 ppm [4]

COCCC(=O)N(C)Cc1ccc(-c2noc(C(F)(F)F)n2)cc1 [Compound 1.516, 3-methoxy-N-methyl-N-[[4-[5-(trifluoromethyl)-1,2,4-oxadiazol-3-yl]phenyl]methyl]-propanamide]
≥ 80%: inhibition of growth at 20 ppm [1] | pest or weed control at 200 ppm [2] | pest or weed control at 200 ppm [3] | pest or weed control at 200 ppm [4]

CCC(=O)N(C)Cc1ccc(-c2noc(C(F)(F)F)n2)cc1 [Compound 1.517, N-methyl-N-[[4-[5-(trifluoromethyl)-1,2,4-oxadiazol-3-yl]phenyl]methyl]-propanamide]
≥ 80%: inhibition of growth at 20 ppm [1] | pest or weed control at 200 ppm [2] | pest or weed control at 200 ppm [3] | pest or weed control at 200 ppm [4]

CN(Cc1ccc(-c2noc(C(F)(F)F)n2)cc1)C(=O)C1CCC1 [Compound 1.518, N-methyl-N-[[4-[5-(trifluoromethyl)-1,2,4-oxadiazol-3-yl]phenyl]methyl]-cyclobutane-carboxamide]
≥ 80%: inhibition of growth at 20 ppm [1] | pest or weed control at 200 ppm [2] | pest or weed control at 200 ppm [3] | pest or weed control at 200 ppm [4]

COCC(=O)N(C)Cc1ccc(-c2noc(C(F)(F)F)n2)cc1 [Compound 1.519, 2-methoxy-N-methyl-N-[[4-[5-(trifluoromethyl)-1,2,4-oxadiazol-3-yl]phenyl]methyl]-acetamide]
≥ 80%: inhibition of growth at 20 ppm [1] | pest or weed control at 200 ppm [2] | pest or weed control at 200 ppm [3] | pest or weed control at 200 ppm [4]

CC1CC1C(=O)N(C)Cc1ccc(-c2noc(C(F)(F)F)n2)cc1 (stereo not drawn) [Compound 1.520, N,2-dimethyl-N-[[4-[5-(trifluoromethyl)-1,2,4-oxadiazol-3-yl]phenyl]methyl]-cyclopropane-carboxamide]
≥ 80%: inhibition of growth at 20 ppm [1] | pest or weed control at 200 ppm [2] | pest or weed control at 200 ppm [3] | pest or weed control at 200 ppm [4]

CC(=O)NCC(=O)N(C)Cc1ccc(-c2noc(C(F)(F)F)n2)cc1 [Compound 1.521, 2-acetamido-N-methyl-N-[[4-[5-(trifluoromethyl)-1,2,4-oxadiazol-3-yl]phenyl]methyl]-acetamide]
≥ 80%: inhibition of growth at 20 ppm [1] | pest or weed control at 200 ppm [2] | pest or weed control at 200 ppm [3] | pest or weed control at 200 ppm [4]
